The source of these data is patent US20250320184A1 (SIRONAX LTD., priority 2022, published 2025).

This assay concerns the target T1, SARM1 (50-724) (Homo sapiens, UniProt Q6SZW1).
T1 sequence (Q6SZW1 50-724): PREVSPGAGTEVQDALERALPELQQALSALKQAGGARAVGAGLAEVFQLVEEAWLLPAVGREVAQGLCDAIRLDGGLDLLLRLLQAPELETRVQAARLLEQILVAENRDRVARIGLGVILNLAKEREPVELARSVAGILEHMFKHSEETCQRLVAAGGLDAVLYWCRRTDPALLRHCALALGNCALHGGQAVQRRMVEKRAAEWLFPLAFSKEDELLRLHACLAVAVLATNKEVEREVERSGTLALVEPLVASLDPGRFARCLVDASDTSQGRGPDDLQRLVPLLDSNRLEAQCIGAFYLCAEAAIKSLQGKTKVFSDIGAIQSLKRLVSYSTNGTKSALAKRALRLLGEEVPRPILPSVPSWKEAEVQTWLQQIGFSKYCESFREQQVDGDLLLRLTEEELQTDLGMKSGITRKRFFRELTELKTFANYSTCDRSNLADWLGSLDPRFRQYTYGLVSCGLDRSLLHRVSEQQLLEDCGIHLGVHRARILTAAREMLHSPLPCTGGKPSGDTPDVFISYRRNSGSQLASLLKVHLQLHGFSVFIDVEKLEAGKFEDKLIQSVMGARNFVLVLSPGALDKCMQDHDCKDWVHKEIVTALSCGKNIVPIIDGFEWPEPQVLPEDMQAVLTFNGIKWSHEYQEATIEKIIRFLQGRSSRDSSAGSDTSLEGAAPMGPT
Nature of the assay: biochemical.
Protocol: An enzymatic assay was performed in a 384-well plate using Dulbecco's phosphate-buffered saline (PBS) as the reaction buffer. […] The reaction was initiated by adding a mixture of 200 μM nicotinamide mononucleotide (NMN) as activator and 100 μM NAD^+ as substrate. After 1 h of incubation at room temperature, the reaction was terminated with 10 times volume of 70% acetonitrile, then centrifuged at 3800 rpm for 10 min.
The term IC50 denotes the concentration needed to halve the response being measured. High values mean weaker potency, low ones greater potency. Molecule `Cc1n[nH]c(=O)c2cc(NC(C)c3scc(Cl)c3Cl)ccc12` (racemic) [Compound 342, 7-((1-(3,4-dichlorothiophen-2-yl)ethyl)amino)-4-methylphthalazin-1(2H)-one] gave an IC50 of under 100 nM.
Then `Cc1nc(C(C)Nc2ccc3c(C)n(CC(N)=O)nc3c2)sc1Cl` (racemic) [Compound 343, 2-(6-((1-(5-chloro-4-methylthiazol-2-yl)ethyl)amino)-3-methyl-2H-indazol-2-yl)acetamide], with under 100 nM.
In the case of `CC(Nc1nc2ccccc2s1)c1nc(Cl)c(Cl)s1` (racemic) [Compound 344, N-(1-(4,5-dichlorothiazol-2-yl)ethyl)benzo[d]thiazol-2-amine] it was under 100 nM; in that of `CC(Nc1ccc2snc(C(N)=O)c2c1)c1nc(Cl)c(Cl)s1` (racemic) [Compound 345, 5-[1-(4,5-dichlorothiazol-2-yl)ethylamino]-1,2-benzothiazole-3-carboxamide], under 100 nM; in that of `CC(Nc1ccc2snc(C(=O)N3CC(O)C3)c2c1)c1nc(Cl)c(Cl)s1` (racemic) [Compound 346, (5-((1-(4,5-dichlorothiazol-2-yl)ethyl)amino)benzo[d]isothiazol-3-yl)(3-hydroxyazetidin-1-yl)methanone], under 100 nM.
Molecule `CC(Nc1ccc2nc[nH]c(=O)c2n1)c1c(F)ccc(Cl)c1Cl` (racemic) [Compound 349, 6-((1-(2,3-dichloro-6-fluorophenyl)ethyl)amino)pyrido[3,2-d]pyrimidin-4(3H)-one] had an IC50 of under 100 nM.
Then `Cc1c(C#N)sc(C(C)Nc2ccc3c(C)n[nH]c(=O)c3c2)c1Cl` (racemic) [Compound 350, 4-chloro-3-methyl-5-(1-((1-methyl-4-oxo-3,4-dihydrophthalazin-6-yl)amino)ethyl)thiophene-2-carbonitrile], with 100 to 500 nM; and `CC(Nc1cc(F)c2ncn(CC(N)=O)c(=O)c2c1)c1ccc(F)c(Cl)c1Cl` (racemic) [Compound 351, 2-(6-((1-(2,3-dichloro-4-fluorophenyl)ethyl)amino)-8-fluoro-4-oxoquinazolin-3(4H)-yl)acetamide], with under 100 nM; and `CC(Nc1cc(F)c2nc[nH]c(=O)c2c1)c1nccc(Cl)c1Cl` (racemic) [Compound 352, 6-((1-(3,4-dichloropyridin-2-yl)ethyl)amino)-8-fluoroquinazolin-4(3H)-one], with under 100 nM.
In the case of `CC(Nc1ccc2cc[nH]c(=O)c2c1)c1csc(Cl)c1Cl` (racemic) [Compound 353, 7-((1-(4,5-dichlorothiophen-3-yl)ethyl)amino)isoquinolin-1(2H)-one] it was under 100 nM; in that of `CC(Nc1cc(F)c2nc[nH]c(=O)c2c1)c1cncc(Cl)c1Cl` (racemic) [Compound 354, 6-((1-(4,5-dichloropyridin-3-yl)ethyl)amino)-8-fluoroquinazolin-4(3H)-one], under 100 nM; in that of `CC(Nc1ccc2c(C(F)F)n(CC(N)=O)nc2c1)c1nc(Cl)c(Cl)s1` (racemic) [Compound 355, 2-(6-((1-(4,5-dichlorothiazol-2-yl)ethyl)amino)-3-(difluoromethyl)-2H-indazol-2-yl)acetamide], under 100 nM.
`CC(Nc1ccc2c(Cl)n(CC(N)=O)nc2c1)c1nc(Cl)c(Cl)s1` (racemic) [Compound 361, 2-(3-chloro-6-((1-(4,5-dichlorothiazol-2-yl)ethyl)amino)-2H-indazol-2-yl)acetamide] came in with an IC50 of under 100 nM.
Then `Cc1c2c(F)cc(NC(C)c3c(F)ccc(Cl)c3Cl)cc2nn1CC(N)=O` (racemic) [Compound 364, 2-(6-((1-(2,3-dichloro-6-fluorophenyl)ethyl)amino)-4-fluoro-3-methyl-2H-indazol-2-yl)acetamide], with under 100 nM.
In the case of `CC(Nc1ccc2c(C(F)F)n(CC(N)=O)nc2c1)c1c(F)ccc(Cl)c1Cl` (racemic) [Compound 365, 2-(6-((1-(2,3-dichloro-6-fluorophenyl)ethyl)amino)-3-(difluoromethyl)-2H-indazol-2-yl)acetamide] it was under 100 nM.
In turn, `CC(Nc1ccc2c(C(F)(F)F)n(CC(N)=O)nc2c1)c1nc(Cl)c(Cl)s1` (racemic) [Compound 366, 2-(6-((1-(4,5-dichlorothiazol-2-yl)ethyl)amino)-3-(trifluoromethyl)-2H-indazol-2-yl)acetamide] gave an IC50 of under 100 nM.
Then `[2H]C(C)(Nc1ccc2c(C)n(CC(N)=O)nc2c1)c1nc(Cl)c(Cl)s1` (racemic) [Compound 376, 2-(6-((1-(4,5-dichlorothiazol-2-yl)ethyl-1-d)amino)-3-methyl-2H-indazol-2-yl)acetamide], with under 100 nM; and `Cc1sc(C(C)Nc2ccc3c(C)n(CC(N)=O)nc3c2)nc1Cl` (racemic) [Compound 379, 2-(6-((1-(4-chloro-5-methylthiazol-2-yl)ethyl)amino)-3-methyl-2H-indazol-2-yl)acetamide], with under 100 nM.
Then `CC(Nc1ccc2nc[nH]c(=O)c2n1)c1ccc(F)c(Cl)c1Cl` (racemic) [Compound 384, 6-((1-(2,3-dichloro-4-fluorophenyl)ethyl)amino)pyrido[3,2-d]pyrimidin-4(3H)-one], with 100 to 500 nM; and `Cc1c2c(F)cc(NC(C)c3nc(Cl)c(Cl)s3)cc2nn1CC(N)=O` (racemic) [Compound 389, 2-(6-((1-(4,5-dichlorothiazol-2-yl)ethyl)amino)-4-fluoro-3-methyl-2H-indazol-2-yl)acetamide], with under 100 nM.
In the case of `Cc1cc(F)cc(C(C)Nc2ccc3c(c2)C(=O)NCC3)c1` (racemic) [Example 93, 7-((1-(3-fluoro-5-methylphenyl)ethyl)amino)-3,4-dihydroisoquinolin-1(2H)-one] it was 500 to 1000 nM.
`CC(Nc1ccc2c(c1)C(=O)NCC2)c1ccc(Cl)c(F)c1` (racemic) [Example 96, 7-((1-(4-chloro-3-fluorophenyl)ethyl)amino)-3,4-dihydroisoquinolin-1(2H)-one] gave an IC50 of over 1000 nM.
Then `CC(Nc1ccc2c(c1)C(=O)NCC2)c1cc(Cl)cc(Cl)n1` (racemic) [Example 97, 7-((1-(4,6-dichloropyridin-2-yl)ethyl)amino)-3,4-dihydroisoquinolin-1(2H)-one], with 500 to 1000 nM; and `CC(Nc1ccc2c(c1)C(=O)NCC2)c1cc(Cl)nc(Cl)c1` (racemic) [Example 98, 7-((1-(2,6-dichloropyridin-4-yl)ethyl)amino)-3,4-dihydroisoquinolin-1(2H)-one], with over 1000 nM; and `Cc1cccc(C(C)Nc2ccc3c(c2)C(=O)NCC3)c1F` (racemic) [Example 99, 7-((1-(2-fluoro-3-methylphenyl)ethyl)amino)-3,4-dihydroisoquinolin-1(2H)-one], with over 1000 nM.
As for `CC(Nc1ccc2c(c1)C(=O)NCC2)c1cccc(Cl)c1Cl` (racemic) [Example 100, 7-((1-(2,3-dichlorophenyl)ethyl)amino)-3,4-dihydroisoquinolin-1(2H)-one], the IC50 fell in the range of 100 to 500 nM.
Turning to `CC(Nc1ccc2c(c1)C(=O)NCC2)c1cc(F)cc(Cl)c1` (racemic) [Example 101, 7-((1-(3-chloro-5-fluorophenyl)ethyl)amino)-3,4-dihydroisoquinolin-1(2H)-one], the IC50 lay within 100 to 500 nM.
`CC(Nc1ccc2cc[nH]c(=O)c2c1)c1cccc(Cl)c1Cl` (racemic) [Example 103, 7-((1-(2,3-dichlorophenyl)ethyl)amino)isoquinolin-1(2H)-one] returned a concentration for half-maximal inhibition (IC50) of under 100 nM.
On to `CC(Nc1ccc2c(c1)C(=O)NCC2)c1ccc(Cl)c(Cl)c1` (racemic) [Example 104, 7-((1-(3,4-dichlorophenyl)ethyl)amino)-3,4-dihydroisoquinolin-1(2H)-one], for which the half-inhibitory concentration (IC50) was 500 to 1000 nM.
In the case of `Cc1ccc(F)cc1C(C)Nc1ccc2c(c1)C(=O)NCC2` (racemic) [Example 105, 7-((1-(5-fluoro-2-methylphenyl)ethyl)amino)-3,4-dihydroisoquinolin-1(2H)-one] it was 100 to 500 nM; in that of `CC(Nc1ccc2c(c1)C(=O)NCC2)c1cccc(F)c1F` (racemic) [Example 106, 7-((1-(2,3-difluorophenyl)ethyl)amino)-3,4-dihydroisoquinolin-1(2H)-one], over 1000 nM.
Then `CC(Nc1ccc2cc[nH]c(=O)c2c1)c1cnc(Cl)c(Cl)c1` (racemic) [Example 107, 7-((1-(5,6-dichloropyridin-3-yl)ethyl)amino)isoquinolin-1(2H)-one], with 100 to 500 nM; and `CC(Nc1ccc2cc[nH]c(=O)c2c1)c1cccc(Cl)c1` (racemic) [Example 108, 7-((1-(3-chlorophenyl)ethyl)amino)isoquinolin-1(2H)-one], with 100 to 500 nM; and `CCC(Nc1ccc2c(c1)C(=O)NCC2)c1cc(C)cc(F)c1` (racemic) [Example 109, 7-((1-(3-fluoro-5-methylphenyl)propyl)amino)-3,4-dihydroisoquinolin-1(2H)-one], with 100 to 500 nM.
The molecule `CC(Nc1ccc2cc[nH]c(=O)c2c1)c1ccccc1Cl` (racemic) [Example 110, 7-((1-(2-chlorophenyl)ethyl)amino)isoquinolin-1(2H)-one] showed an IC50 of 100 to 500 nM.
